According to patent US20240269106A1, “SMALL MOLECULE MODULATOR TARGETING A RARE HISTONE MODIFICATION REGULATING ADIPOGENESIS AND PHARMACEUTICAL FORMULATION THEREOF” (COUNCIL OF SCIENTIFIC AND INDUSTRIAL RESEARCH AN INDIAN …, priority 2021, published 2024):

Legend:
full length p300 [1] = biological target: T1, full length p300 (Homo sapiens, UniProt Q09472); assay: In vitro p300 butyrylation assay (immunoblot); type: biochemical; details: for effect on p300 catalysed butyrylation: FIG. 2 legend
T1 construct: Purified full length p300 protein was used for in vitro acetylation/butyrylation assay
T1 sequence (Q09472 whole entry, species assumed): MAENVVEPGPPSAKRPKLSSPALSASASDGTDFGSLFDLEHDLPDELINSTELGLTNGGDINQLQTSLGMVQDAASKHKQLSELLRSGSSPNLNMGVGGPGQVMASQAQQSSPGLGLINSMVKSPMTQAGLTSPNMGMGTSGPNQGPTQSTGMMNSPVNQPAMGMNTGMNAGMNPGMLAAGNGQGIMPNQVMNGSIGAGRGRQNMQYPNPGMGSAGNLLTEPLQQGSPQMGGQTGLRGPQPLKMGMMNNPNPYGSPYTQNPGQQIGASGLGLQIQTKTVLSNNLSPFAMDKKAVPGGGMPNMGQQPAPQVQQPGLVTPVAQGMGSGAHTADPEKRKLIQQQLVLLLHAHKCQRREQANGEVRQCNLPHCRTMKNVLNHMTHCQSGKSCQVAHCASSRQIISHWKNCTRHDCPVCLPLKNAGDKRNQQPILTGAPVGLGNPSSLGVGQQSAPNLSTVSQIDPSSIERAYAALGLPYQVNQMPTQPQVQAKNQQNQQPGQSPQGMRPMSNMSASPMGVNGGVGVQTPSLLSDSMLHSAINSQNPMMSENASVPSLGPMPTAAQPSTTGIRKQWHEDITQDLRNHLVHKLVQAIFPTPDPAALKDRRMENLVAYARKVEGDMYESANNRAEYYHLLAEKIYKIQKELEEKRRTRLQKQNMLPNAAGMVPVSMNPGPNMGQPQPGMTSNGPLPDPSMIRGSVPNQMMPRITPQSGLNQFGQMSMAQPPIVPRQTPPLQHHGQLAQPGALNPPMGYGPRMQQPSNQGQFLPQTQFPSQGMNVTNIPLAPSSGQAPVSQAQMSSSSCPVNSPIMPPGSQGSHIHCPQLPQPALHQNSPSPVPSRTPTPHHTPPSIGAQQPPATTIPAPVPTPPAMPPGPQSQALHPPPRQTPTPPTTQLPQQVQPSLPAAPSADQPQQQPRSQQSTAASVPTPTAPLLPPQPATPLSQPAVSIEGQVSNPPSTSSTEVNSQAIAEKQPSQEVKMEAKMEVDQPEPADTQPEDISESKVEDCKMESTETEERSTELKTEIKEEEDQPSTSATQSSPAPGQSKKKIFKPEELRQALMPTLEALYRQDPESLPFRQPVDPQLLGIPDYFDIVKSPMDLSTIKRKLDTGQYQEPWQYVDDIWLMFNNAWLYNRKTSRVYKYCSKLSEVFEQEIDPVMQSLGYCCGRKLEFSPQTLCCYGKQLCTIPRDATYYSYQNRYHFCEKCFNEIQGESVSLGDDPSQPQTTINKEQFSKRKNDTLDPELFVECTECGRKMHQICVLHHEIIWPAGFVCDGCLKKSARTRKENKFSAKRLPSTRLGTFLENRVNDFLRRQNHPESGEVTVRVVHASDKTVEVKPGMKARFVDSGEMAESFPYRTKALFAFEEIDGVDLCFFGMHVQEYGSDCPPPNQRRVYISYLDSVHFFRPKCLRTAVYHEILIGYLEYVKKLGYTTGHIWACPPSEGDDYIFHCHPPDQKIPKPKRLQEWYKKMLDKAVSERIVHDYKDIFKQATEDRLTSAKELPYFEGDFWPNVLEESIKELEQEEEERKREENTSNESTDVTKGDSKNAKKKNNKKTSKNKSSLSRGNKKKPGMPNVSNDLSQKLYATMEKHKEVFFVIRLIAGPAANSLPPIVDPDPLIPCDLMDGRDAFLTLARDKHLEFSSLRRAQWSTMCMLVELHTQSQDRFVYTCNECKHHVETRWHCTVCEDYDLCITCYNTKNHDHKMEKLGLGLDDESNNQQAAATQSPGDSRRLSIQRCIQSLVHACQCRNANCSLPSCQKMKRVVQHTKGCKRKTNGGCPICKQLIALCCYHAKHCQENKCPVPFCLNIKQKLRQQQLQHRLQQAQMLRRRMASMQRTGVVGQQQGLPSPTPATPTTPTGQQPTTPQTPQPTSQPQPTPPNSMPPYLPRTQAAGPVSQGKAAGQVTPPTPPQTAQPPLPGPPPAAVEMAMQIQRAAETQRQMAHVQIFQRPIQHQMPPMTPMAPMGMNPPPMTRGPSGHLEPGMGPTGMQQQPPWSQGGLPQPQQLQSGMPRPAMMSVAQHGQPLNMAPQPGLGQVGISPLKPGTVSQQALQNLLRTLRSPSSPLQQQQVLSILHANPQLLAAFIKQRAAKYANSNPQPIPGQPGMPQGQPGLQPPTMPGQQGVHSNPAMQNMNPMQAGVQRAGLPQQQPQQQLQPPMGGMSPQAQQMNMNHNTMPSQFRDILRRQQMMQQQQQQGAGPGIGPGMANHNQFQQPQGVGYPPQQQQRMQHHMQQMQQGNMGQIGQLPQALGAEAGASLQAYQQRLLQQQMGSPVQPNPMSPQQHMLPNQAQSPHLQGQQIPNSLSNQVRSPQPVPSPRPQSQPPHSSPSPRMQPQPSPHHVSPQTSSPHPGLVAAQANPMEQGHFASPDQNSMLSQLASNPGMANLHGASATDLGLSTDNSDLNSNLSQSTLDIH
Method: (§1) Purified full length p300 protein was used for in vitro acetylation/butyrylation assay in presence/absence of different compounds. Acylation reactions were performed in reaction buffer (25 mM Tris-HCl PH 7.5, 100 mM NaCl, 0.1 mM EDTA, 1 mM DTT, 10% Glycerol, 1×PIC) with 100 ng/ml TSA, and 50 μM Butyryl-CoA/Acetyl COA. Xenopus histone H3 (500 ng) was used as the substrate and p300 (10,000 cpm activity) was used as the enzyme. Reactions were incubated in presence or absence of small molecule modulators (including compound of Formula I) for 10 minutes at 30° C., followed by initiation of the acetylation/butyrylation reaction by the addition of acetyl/butyryl CoA. After a further 10 minutes, reactions were stopped by addition of Laemmli buffer and samples were used for immunoblotting.
(§2) Immunoblotting with antibodies against acetylated H3K18, acetylated H3K9 and pan-butyryl lysine was performed to check for the relative inhibition of acetyl transferase and butyryl transferase activities of full length p300 by garcinol, isogarcinol and its different derivatives including compound of Formula I at different concentrations. FIG. 2i depicts the effect of garcinol, isogarcinol and two of its derivatives LTK-13 and LTK-14 on p300 catalysed acetyltransferase activity. […] FIG. 2ii depicts the effect of LTK-14 on acetylation and butyrylation catalysed by p300. Lane 1, enzyme alone; Lane 2-4, enzyme+LTK-14 at concentrations 500 nM, 2 μM and 10 μM, respectively. LTK-14 could inhibit acetylation at 10 μM concentration while butyrylation was inhibited at 2 μM concentration. FIG. 2iii depicts the effect of compound x on acetylation and butyrylation catalysed by p300. Lane 1, enzyme alone; Lane 2, enzyme+DMSO; Lane 3-6, enzyme+compound x at concentrations 10, 15, 20 and 25 μM, respectively.

full length p300 [2] = biological target: T1, full length p300; assay: In vitro p300 acetylation assay (immunoblot); type: biochemical; details: for effect on p300 catalysed acetyltransferase activity: FIG. 2i, immunoblot
Method: as §1, §2

[3] = tested at 500 nM, 2 μM and 10 μM

| effect on p300 catalysed butyrylation (full length p300 [1]) | effect on p300 catalysed acetyltransferase activity (full length p300 [2]) | concentration at which butyrylation was inhibited (full length p300 [1]; [3]) | concentration at which acetylation was inhibited (full length p300 [2]; [3]) | SMILES |
| --- | --- | --- | --- | --- |
| can inhibit | showed inhibitory effect | – | – | CC(C)=CC[C@H]1C[C@@]23C[C@@H](CC=C(C)C)C(C)(C)[C@@](CC=C(C)C)(C(=O)C(C(=O)c4ccc(O)c(O)c4)=C2OC1(C)C)C3=O [isogarcinol] |
| can inhibit | showed inhibitory effect | 2 µM | 10 µM | COc1ccc(C(=O)C2=C3OC(C)(C)[C@@H](CC=C(C)C)C[C@@]34C[C@@H](CC=C(C)C)C(C)(C)[C@@](CC=C(C)C)(C2=O)C4=O)cc1O [LTK-14] |
